Measured values reported in patent US9376395B2 (priority 2011, dated 2016).

Columns and labels:
Human NSCLC A549 cells = details: 60 mg/kg i.v. day 1, 4, 8, 11, 18, 25; 10% HPβCD formulation; balb/c nu/nu mice
NCI-60 cell lines = assay: NCI-60 cell line panel screening; format: cell-based, human; details: vs Bendamustine

SMILES	Body weight (Human NSCLC A549 cells)	T/C (%) (Human NSCLC A549 cells)	Tumor volume (mm3) (Human NSCLC A549 cells)	Tumor weight (Human NSCLC A549 cells)	fold more potent than Bendamustine in the NCI-60 cell lines (NCI-60 cell lines)
Cn1c(CCCC(=O)O)nc2cc(N(CCCl)CCCl)ccc21 [Bendamustine, reference compound]	28.6 g	71.9%	1716.5 mm3	1.97 g	
Cn1c(CCCCCCC(=O)NO)nc2cc(N(CCCl)CCCl)ccc21 [NL-101]	27.6 g	37.7%	772.7 mm3	0.88 g	25-100 fold
